The source of these data is US9844546B2, “Antibody against human HIF hydroxylase” (OXFORD UNIVERSITY INNOVATION LIMITED, priority 2001, dated 2017).

In one assay the test system is Hep3B and U2OS cells. Kind of assay: Immunoblot of HIF-1α and CA-9 in cells exposed to inhibitor. The class given is cell-based, human. The settings on record: 0.1 or 1 mM, 6 hours; for HIF-1α level (immunoblot): normoxic culture. The source says: We went on to test a series of 2-oxoglutarate analogues which act as competitive inhibitors of this class of enzyme (29) for ability to inhibit HIF-PH as assessed by the ability of cell extracts to modify either HIF polypeptide (19:WT) or a HIF fusion protein (Gal/HIF-1α549-582/VP16) so as to promote pVHL capture. Concordant results were obtained with both sources of HIF sequence. In one such experiment the effect of N-oxalylglycine on pVHL capture by a biotinylated HIF polypeptides as substrate was monitored. The WT:19 and 19:Pro564Hyp polypeptides described above were used as substrates. […] Inhibition by N-Oxalylglycine was overcome by addition of 5 mM 2-oxoglutarate. As previously, 19:Pro564Hyp captured pVHL efficiently without modification by cell extract, and this was not influenced by exposure to N-oxalylglycine. […] We also used a 2-oxoglutarate dependent dioxygenase, phytanoyl-CoA α-hydroxylase (30), together with a readily available unnatural substrate (isovaleryl CoA) (31) to deplete the cell extract of 2-oxoglutarate produced by the citric acid cycle; as predicted, this prevented the subsequent modification of HIF polypeptide. The effect of dimethyl-oxalyglycine on HIF-1α expression was also studied. HIF-1α immunoblot analysis of extracts of Hep3B and U2OS cells exposed to dimethyl-oxalylgylcine (0, 0.1 or 1.0 mM) for 6 hours was carried out.
Hep3B and U2OS cells were exposed to either 0.1 mM or 1 mM dimethyloxalylglycine for 6 hours, harvested and assayed by immunoblotting (Western blotting) for changes in the level of HIF-1α and CA-9 expression. Controls, where no inhibitor was added, were also performed. […] Upregulation of HIF-1α increased with increasing concentration of dimethyloxalylglycine, whilst the level of CA-9 expression was similar after exposure to both 0.1 and 1 mM of dimethyloxalylglycine.

The subject of assay [1] is angiogenesis in subcutaneous polyurethane sponge. Kind of assay: Murine subcutaneous sponge angiogenesis assay. It counts as in vivo, mouse. Conditions: 1 mM, 100 microliters injected days 1, 2, 4, 5; day 7; versus solvent. The procedure: Implantation of a polyurethane sponge subcutaneously in a mouse provides an inflammatory stimulus to angiogenesis and is a well established model for assessing the pro- and anti-angiogenic effects of compounds. To test the effects of dimethyl oxalylglycine in vivo, sterile 8 mm sponge discs were inserted under the dorsal skin of C57 Black mice on Day 0. Test solutions were injected through the skin into the sponges of mice once per day on days 1, 2, 4 and 5. Individual mice received 100 microliters aliquots of either sterile dimethyloxalylglycine (0.1 mM, 1 mM or 10 mM) or carrier solution. Animals were sacrificed on day 7 and the sponges removed. The sponges were fixed in 3.7% formaldehyde, paraffin embedded and stained immunohistochemically for von Willebrand factor to identify blood vessels.
Artificial activation of the HIF signalling pathway using the methods of the invention should induce angiogenesis and will therefore be of potential therapeutic use in ischaemic disease. We tested the effect of polypeptide induced HIF stabilisation in an in vitro angiogenesis assay, co-culturing human microvascular endothelial cells (HMEC-1) with empty vector transfected or doxCODD cells. In view of the possibility of sustained activation inducing a negative feedback loop we opted to test the effects of intermittent induction. […]

Assay [2] deals with HIF hydroxylase (HPH activity). The assay is described as follows: HIF hydroxylase (HPH) inhibition, statements of the description. The class given is biochemical.
The subject of the next assay is HIF. Kind of assay: Induction of HIF in tissue culture by esterified equivalents. The class given is cell-based. Conditions: In-vivo esterified equivalent.

SMILES strings stand for the structures. Entries after “also recorded” stand apart in the source; their conditions may differ.

Take `COC(=O)CNC(=O)C(=O)OC` [dimethyloxalylglycine]: in the assay with Hep3B and U2OS cells, the “CA-9 expression (immunoblot)” value is “Clear upregulation” and the “HIF-1α level (immunoblot)” value is given as “increase intracellular levels of HIF-1; also recorded: Clear upregulation”. Moreover, the “HIF-1α level (immunoblot)” value in the assay with Hep3B and U2OS cells (listed as dimethyl-oxalylgylcine) was “strongly induced”. Also, the “blood vessels in sponges (von Willebrand factor)” value in assay [1] was “Considerably more blood vessels”. In addition, the “inhibition of HIF hydroxylase / HPH” value in assay [2] is “act as inhibitors”. In addition, the “Induction of HIF in tissue culture” value in the assay on HIF is reported as “Yes”.
